We go through five compounds from ChEMBL document CHEMBL3992484, “Synthetic α-Hydroxytropolones as Inhibitors of HIV Reverse Transcriptase Ribonuclease H Activity” (Medchemcomm, 2016).

The structures appear in SMILES notation. pEC50, pIC50: −log10 of the molar value.

Series [1] in a line: Inhibition of HIV-1 RT-RNase H using 18-nucleotide 3'-fluorescein-labeled RNA annealed to a complementary 18-nucleotide 5'-dabsyl-labeled DNA as substrate measured after 10 mins by FRET assay. More on the design: species or system Human immunodeficiency virus 1.
Series [2] is described as follows: Cytotoxicity against human CEM-SS cells after 7 days by XTT assay. Format: cell-based.
In series [3] the test system is Human immunodeficiency virus 1. The series can be described thus: Antiviral activity against HIV1 RF infected in human CEM-SS cells assessed as protection against viral-induced cytopathic effect after 7 days by XTT assay. The following applies: Human immunodeficiency virus 1, RF, 168 h. Format: functional, cell-based. In general terms: Damage to the host cells serves as the signal in cytopathic effect assays.

The test system of series [4] is Human immunodeficiency virus 1. The series can be described thus: Stabilization of HIV-1 RT-RNase H assessed as change in melting temperature at 20 uM by sypro-orange dye-based differential scanning fluorimetric analysis. Background: In DSF a fluorescence change marks the thermal transition of the protein.

On to `COC(=O)c1c(C)cc(O)c(=O)c(O)c1Br`, for which the pIC50 (commonly the IC50 on a negative log10 scale, so that one unit is a factor of ten) in series [1] was 6.89. Moreover, the midpoint of cytotoxicity in series [2], the CC50 at 168 h, lay at 7.6 µM. In addition, the pEC50 (in general, −log10 of the EC50, conventionally taken in molar units) in series [3] is 5.66. In addition, the ΔTm (commonly the shift of the melting midpoint relative to a reference) in series [4] turned out to be 2.48 °C.

Take `CC(C)c1ccc(O)c(=O)c(O)c1`: the ΔTm in series [4] came out at 2.3 °C.

`CC(=O)c1cc(O)c(=O)c(O)cc1C`: the pIC50 in series [1] is 6.54. Moreover, the CC50 (usually the concentration giving 50% cytotoxicity) at 168 h in series [2] is 20 µM. The pEC50 in series [3] was 5.16. For the same compound, the ΔTm in series [4] was 2.9 °C.

The compound `COC(=O)c1cc(O)c(=O)c(O)cc1C` had a pIC50 in series [1] of 6.80. Also, in series [3], the pEC50 is 5.12. Besides, the ΔTm in series [4] was found to be 2.7 °C.

In series [1], `CCOC(=O)c1cc(O)c(=O)c(O)cc1C` showed a negative logarithm of the IC50 (pIC50) of 6.60. In addition, in series [3], the pEC50 is 5.30. In series [4], the thermal shift (ΔTm) was found to be 2.4 °C.
